Reference: patent publication US20250059174A1, “Pharmaceutical Compounds and Compositions as C-Kit Kinase Inhibitors” (Enanta Pharmaceuticals, Inc., priority 2023, published 2025)

Key:
[1] = test system: M-07e cells; assay: M-07e cellular assay (SCF-mediated cell proliferation); format: cell-based; settings: Homo sapiens, 72 hours, CellTiter Glo
Procedure, shortened: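 Readout came from CellTiter Glo after 72 h of compound treatment in SCF (EC90)-stimulated, pre-starved M-07e cells at 37 °C.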

[2] = target: Recombinant human c-KIT kinase (Homo sapiens (Human), UniProt P10721); assay: c-KIT kinase chemiluminescence assay (ADP-Glo); format: biochemical; settings: ATP 50 μM
Procedure, shortened: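 ADP formed by c-KIT on polyEY over 2 h at RT (after 30 min enzyme preincubation; Tris pH 7.5, MgCl2, BSA, DTT buffer) was detected by ADP-Glo luminescence. IC50 and Hill slope were fitted to control-normalized activity across compound concentrations.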

Chain of Recombinant human c-KIT kinase (P10721 26-976): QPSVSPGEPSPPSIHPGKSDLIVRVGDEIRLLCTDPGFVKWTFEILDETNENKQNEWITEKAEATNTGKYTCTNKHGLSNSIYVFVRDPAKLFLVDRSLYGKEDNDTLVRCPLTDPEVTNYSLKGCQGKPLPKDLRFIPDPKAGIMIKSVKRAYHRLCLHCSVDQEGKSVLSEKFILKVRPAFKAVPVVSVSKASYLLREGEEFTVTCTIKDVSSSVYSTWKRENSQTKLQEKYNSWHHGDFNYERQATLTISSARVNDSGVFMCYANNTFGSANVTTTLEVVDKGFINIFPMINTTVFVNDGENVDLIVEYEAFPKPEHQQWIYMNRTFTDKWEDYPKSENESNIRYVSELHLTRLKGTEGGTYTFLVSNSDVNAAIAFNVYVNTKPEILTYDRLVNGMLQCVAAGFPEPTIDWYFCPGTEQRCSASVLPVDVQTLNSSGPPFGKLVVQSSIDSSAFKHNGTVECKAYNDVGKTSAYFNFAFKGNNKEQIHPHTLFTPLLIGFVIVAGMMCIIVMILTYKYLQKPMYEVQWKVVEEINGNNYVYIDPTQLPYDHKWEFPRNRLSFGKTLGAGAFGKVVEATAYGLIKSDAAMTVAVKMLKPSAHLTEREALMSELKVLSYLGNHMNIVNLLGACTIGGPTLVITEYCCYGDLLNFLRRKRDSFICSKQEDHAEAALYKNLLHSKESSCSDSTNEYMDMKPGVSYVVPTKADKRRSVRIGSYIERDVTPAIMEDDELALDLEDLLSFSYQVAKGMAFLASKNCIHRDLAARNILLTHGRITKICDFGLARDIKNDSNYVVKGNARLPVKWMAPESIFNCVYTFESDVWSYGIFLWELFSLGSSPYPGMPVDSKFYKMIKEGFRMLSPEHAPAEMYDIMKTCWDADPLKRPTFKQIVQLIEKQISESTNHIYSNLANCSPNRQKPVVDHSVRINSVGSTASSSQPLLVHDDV

Compound | IC50 [2] [nM] | EC50 [1] [nM]
Cc1ccc(-c2noc([C@H]3C[C@@H](OC(F)F)C3(C)C)n2)cc1NC(=O)c1cnn2ccc(N3CC4(CCN(CC(F)F)C4)C3)cc12 [Example 255] | < 100 | 100 to 1000
Cc1ccc(-c2noc([C@H]3C[C@@H](OC(F)(F)F)C3)n2)cc1NC(=O)c1cnn2ccc(N3CC4CC(C3)O4)cc12 [Example 256] | < 100 | < 100
Cc1ccc(-c2noc([C@H]3C[C@@H](OC(F)F)C3)n2)cc1NC(=O)c1cnn2ccc(N3CC4CC(C3)O4)cc12 [Example 257] | < 100 | 100 to 1000
Cc1ccc(-c2noc([C@H]3C[C@@H](OC(F)(F)F)C3)n2)cc1NC(=O)c1cnn2ccc(N3CC4(CN(C(=O)OC(C)(C)C)C4)C3)cc12 [Example 258] | 100 to 1000 | 100 to 1000
Cc1ccc(-c2noc([C@H]3C[C@@H](OC(F)(F)F)C3)n2)cc1NC(=O)c1cnn2ccc(N3CC4(CN(CC(F)F)C4)C3)cc12 [Example 259] | < 100 | < 100
Cc1ccc(-c2noc([C@H]3C[C@@H](OC(F)(F)F)C3)n2)cc1NC(=O)c1cnn2ccc(N3CC4(CNC4)C3)cc12 [Example 260] | < 100 | 100 to 1000
Cc1ccc(-c2noc([C@H]3C[C@@H]3F)n2)nc1NC(=O)c1cnn2ccc(N3CC4(COC4)C3)cc12 [Example 261] | 100 to 1000 | 100 to 1000
O=C(Nc1cc(-c2noc([C@H]3C[C@@H]3F)n2)ccc1Cl)c1cnn2ccc(N3CC4(COC4)C3)cc12 [Example 262] | < 100 | < 100
Cc1ccc(-c2noc([C@H]3C[C@@H](OC(F)(F)F)C3)n2)cc1NC(=O)c1cnn2cc(-c3cn(C(F)F)nn3)ccc12 [Example 263] | < 100 | < 100
O=C(Nc1cc(-c2noc([C@H]3C[C@@H](OC(F)(F)F)C3)n2)ccc1Cl)c1cnn2ccc(N3CC4(COC4)C3)cc12 [Example 264] | < 100 | < 100
O=C(Nc1cc(-c2noc([C@H]3C[C@@H](OC(F)F)C3)n2)ccc1Cl)c1cnn2ccc(N3CC4(COC4)C3)cc12 [Example 265] | < 100 | < 100
Cc1ccc(-c2noc([C@H]3C[C@@H](OC(F)F)C3)n2)nc1NC(=O)c1cnn2ccc(N3CC4(COC4)C3)cc12 [Example 266] | 100 to 1000 | 100 to 1000
Cc1ccc(-c2noc([C@H]3C[C@@H](OC(F)(F)F)C3)n2)nc1NC(=O)c1cnn2ccc(N3CC4(COC4)C3)cc12 [Example 267] | 100 to 1000 | 100 to 1000
Cc1ncc(-c2noc([C@H]3C[C@@H]3F)n2)cc1NC(=O)c1cnn2ccc(N3CC4(COC4)C3)cc12 [Example 268] | 100 to 1000 | 100 to 1000
Cc1ncc(-c2noc([C@H]3C[C@@H](OC(F)F)C3)n2)cc1NC(=O)c1cnn2ccc(N3CC4(COC4)C3)cc12 [Example 269] | 100 to 1000 | < 100
Cc1ncc(-c2noc([C@H]3C[C@@H](OC(F)(F)F)C3)n2)cc1NC(=O)c1cnn2ccc(N3CC4(COC4)C3)cc12 [Example 270] | 100 to 1000 | < 100

Compound | IC50 [2] [nM] | EC50 [1] [nM]
Cc1ccc(-c2noc(C34CC(OC(F)F)(C3)C4)n2)cc1NC(=O)c1cnn2ccc(N3CC4(COC4)C3)cc12 [Example 271] | < 100 | < 100
COC12CC(c3nc(-c4ccc(C)c(NC(=O)c5cnn6ccc(N7CC8(COC8)C7)cc56)c4)no3)(C1)C2 [Example 272] | < 100 | < 100
CO[C@H]1C[C@@H](c2nc(-c3ccc(C)c(NC(=O)c4cnn5ccc(N6CC7(COC7)C6)cc45)c3)no2)C1 [Example 273] | 100 to 1000 | < 100
CO[C@H]1C[C@H](c2nc(-c3ccc(C)c(NC(=O)c4cnn5ccc(N6CC7(COC7)C6)cc45)c3)no2)C1 [Example 274] | 100 to 1000 | < 100
Cc1ccc(-c2noc([C@H]3C[C@@H](OC(F)F)C3)n2)cc1NC(=O)c1cnn2cc(-c3cn(C(F)F)nn3)ccc12 [Example 275] | < 100 | < 100
Cc1ccc(-c2noc([C@H]3C[C@H]3C(F)F)n2)cc1NC(=O)c1cnn2ccc(N3CC4(COC4)C3)cc12 [Example 276] | < 100 | < 100
Cc1ccc(-c2noc([C@@H]3C[C@@H]3C(F)F)n2)cc1NC(=O)c1cnn2ccc(N3CC4(COC4)C3)cc12 [Example 277] | < 100 | < 100
Cc1ccc(-c2noc([C@H]3C[C@@H]3C(F)F)n2)cc1NC(=O)c1cnn2ccc(N3CC4(COC4)C3)cc12 [Example 278] | < 100 | < 100
Cc1ccc(-c2noc([C@@H]3C[C@@H]4[C@H](C3)C4(F)F)n2)cc1NC(=O)c1cnn2ccc(N3CC4(COC4)C3)cc12 [Example 279] | < 100 | < 100
Cc1ccc(-c2noc([C@H]3C[C@@H]4[C@H](C3)C4(F)F)n2)cc1NC(=O)c1cnn2ccc(N3CC4(COC4)C3)cc12 [Example 280] | < 100 | < 100
Cc1ccc(-c2noc([C@@H]3C[C@H]3C(F)F)n2)cc1NC(=O)c1cnn2ccc(N3CC4(COC4)C3)cc12 [Example 281-1] | < 100 | < 100
Cc1ccc(-c2noc(C3CC4(C3)CC(F)(F)C4)n2)cc1NC(=O)c1cnn2ccc(N3CC4(COC4)C3)cc12 [Example 281-2] | < 100 | < 100
[2H]C([2H])([2H])c1ccc(-c2noc([C@H]3C[C@@H]3F)n2)cc1NC(=O)c1cnn2ccc(N3CC4(COC4)C3)cc12 [Example 281-3] | < 100 | < 100
[2H]C([2H])([2H])c1ccc(-c2noc([C@H]3C[C@@H](OC(F)F)C3)n2)cc1NC(=O)c1cnn2ccc(N3CC4(COC4)C3)cc12 [Example 281-4] | < 100 | < 100
[2H]C([2H])([2H])c1ccc(-c2noc([C@H]3C[C@@H]3C(F)F)n2)cc1NC(=O)c1cnn2ccc(N3CC4(COC4)C3)cc12 [Example 281-5] | < 100 | < 100

The next lines start with results.

IC50 [2] [nM] | Compound | EC50 [1] [nM]
100 to 1000 | Cc1ccc(-c2noc(C34COC(C)(C3)C4)n2)cc1NC(=O)c1cnn2ccc(N3CC4(COC4)C3)cc12 [Example 281-6] | < 100
100 to 1000 | Cc1ccc(-c2noc([C@H]3CC3(F)F)n2)cc1NC(=O)c1cnn2ccc(N3CC4(COC4)C3)cc12 [Example 281-7] | < 100
< 100 | Cc1ccc(-c2noc(C3CN(CC(F)(F)F)C3)n2)cc1NC(=O)c1cnn2ccc(N3CC4(COC4)C3)cc12 [Example 281-8] | < 100
100 to 1000 | Cc1ncc(-c2noc([C@H]3CN(CC(F)(F)F)[C@@H]3C)n2)cc1NC(=O)c1cnn2ccc(N3CC4(C3)CC(O)(C(F)F)C4)cc12 [Example 281-9] | 100 to 1000
100 to 1000 | Cc1ncc(-c2noc([C@H]3CN(C(=O)C(C)(F)F)[C@@H]3C)n2)cc1NC(=O)c1cnn2ccc(N3CC4(C3)CC(O)(C(F)F)C4)cc12 [Example 281-10] | 100 to 1000
100 to 1000 | Cc1ncc(-c2noc([C@@H]3CN(C(=O)C4(F)CC4)[C@H]3C)n2)cc1NC(=O)c1cnn2ccc(N3CC4(C3)CC(O)(C(F)F)C4)cc12 [Example 281-11] | 100 to 1000
< 100 | Cc1ncc(-c2noc([C@@H]3CN(CC(F)(F)F)[C@H]3C)n2)cc1NC(=O)c1cnn2ccc(N3CC4(C3)CC(O)(C(F)F)C4)cc12 [Example 281-12] | 100 to 1000
100 to 1000 | Cc1ncc(-c2noc([C@@H]3CN(C(=O)C(C)(F)F)[C@H]3C)n2)cc1NC(=O)c1cnn2ccc(N3CC4(C3)CC(O)(C(F)F)C4)cc12 [Example 281-13] | 100 to 1000
100 to 1000 | COC(=O)N1C[C@H](c2nc(-c3cnc(C)c(NC(=O)c4cnn5ccc(N6CC7(C6)CC(O)(C(F)F)C7)cc45)c3)no2)[C@H]1C [Example 281-14] | 100 to 1000
100 to 1000 | Cc1ncc(-c2noc([C@H]3CN(C(=O)C4(F)CC4)[C@@H]3C)n2)cc1NC(=O)c1cnn2ccc(N3CC4(C3)CC(O)(C(F)F)C4)cc12 [Example 281-15] | 100 to 1000
< 100 | Cc1ncc(-c2noc([C@H]3CC34CC4)n2)cc1NC(=O)c1cnn2ccc(N3CC4(C3)CC(O)(C(F)F)C4)cc12 [Example 281-16] | < 100
100 to 1000 | COC(=O)N1C[C@@H](c2nc(-c3cnc(C)c(NC(=O)c4cnn5ccc(N6CC7(C6)CC(O)(C(F)F)C7)cc45)c3)no2)[C@@H]1C [Example 281-17] | < 100
< 100 | Cc1cc(F)c(-c2noc([C@H]3C[C@@H]3F)n2)cc1NC(=O)c1cnn2ccc(N3CC4(C3)CC(O)(C(F)F)C4)cc12 [Example 281-18] | < 100
100 to 1000 | CC(=O)N1CC(c2nc(-c3ccc(C)c(NC(=O)c4cnn5ccc(N6CC7(COC7)C6)cc45)c3)no2)C1 [Example 281-19] | > 1000
< 100 | Cc1ccc(-c2noc([C@H]3C[C@@H](OC(F)F)C3)n2)cc1NC(=O)c1cnn2ccc(N3CC4(C3)CC(O)(C(F)F)C4)cc12 [Example 281-20] | < 100
< 100 | Cc1ccc(-c2noc([C@H]3C[C@@H](OC(F)(F)F)C3)n2)cc1NC(=O)c1cnn2ccc(N3CC4(C3)CC(O)(C(F)F)C4)cc12 [Example 281-21] | < 100
< 100 | Cc1ccc(-c2noc([C@H]3C[C@@H](OC(F)F)C3)n2)cc1NC(=O)c1cnn2ccc(N3CC4(C3)CC(O)(C(F)(F)F)C4)cc12 [Example 281-22] | < 100
< 100 | Cc1ccc(-c2noc([C@H]3C[C@@H](OC(F)(F)F)C3)n2)cc1NC(=O)c1cnn2ccc(N3CC4(C3)CC(O)(C(F)(F)F)C4)cc12 [Example 281-23] | < 100
